Molecular target: T1, full-length human PIKFYVE (N-terminal GST-fusion) (Homo sapiens, UniProt Q9Y2I7, L932S/Q1183K/Q995L/S1033A/S696N/T998S)
T1 construct: A full-length human PIKFYVE [1-2098(end) amino acids; purchased Carna Biosciences; host or cells: baculovirus expression system
Test: PIKfyve Biochemical Assay (ADP-Glo Kinase assay, Carna Biosciences)
Protocol: PIKfyve Biochemical Assay. The biochemical PIKFyve inhibition assays were run by Carna Biosciences according to proprietary methodology based on the Promega ADP-Glo™ Kinase assay. […] GST-PIKFYVE was purified by using glutathione sepharose chromatography and used in an ADP-Glo™ Kinase assay (Promega). Reactions were set up by adding the test compound solution, substrate solution, ATP solution and kinase solution, each at 4× final concentrations. Reactions were prepared with assay buffer (50 mM MOPS, 1 mM DTT, pH7.2), mixed, and incubated in black 384 well polystyrene plates for 1 hour at room temperature. ADP-Glo™ reagent was then added for 40 minutes, followed by kinase detection reagent for an additional 40 minutes. The kinase activity was evaluated by detecting relative light units on a luminescence plate reader. Samples were run in duplicate from 10 μM to 3 nM. […] IC50 values were calculated from concentration vs % inhibition curves by fitting to a four-parameter logistic curve.
The biochemical PIKFyve inhibition assays were run by Carna Biosciences according to proprietary methodology based on the Promega ADP-Glo™ Kinase assay. […] The kinase activity was evaluated by detecting relative light units on a luminescence plate reader. […] IC50 values were calculated from concentration vs % inhibition curves by fitting to a four-parameter logistic curve. […]

T1 sequence (Q9Y2I7 whole entry S696N/L932S/Q995L/T998S/S1033A/Q1183K, the tested form may be a part): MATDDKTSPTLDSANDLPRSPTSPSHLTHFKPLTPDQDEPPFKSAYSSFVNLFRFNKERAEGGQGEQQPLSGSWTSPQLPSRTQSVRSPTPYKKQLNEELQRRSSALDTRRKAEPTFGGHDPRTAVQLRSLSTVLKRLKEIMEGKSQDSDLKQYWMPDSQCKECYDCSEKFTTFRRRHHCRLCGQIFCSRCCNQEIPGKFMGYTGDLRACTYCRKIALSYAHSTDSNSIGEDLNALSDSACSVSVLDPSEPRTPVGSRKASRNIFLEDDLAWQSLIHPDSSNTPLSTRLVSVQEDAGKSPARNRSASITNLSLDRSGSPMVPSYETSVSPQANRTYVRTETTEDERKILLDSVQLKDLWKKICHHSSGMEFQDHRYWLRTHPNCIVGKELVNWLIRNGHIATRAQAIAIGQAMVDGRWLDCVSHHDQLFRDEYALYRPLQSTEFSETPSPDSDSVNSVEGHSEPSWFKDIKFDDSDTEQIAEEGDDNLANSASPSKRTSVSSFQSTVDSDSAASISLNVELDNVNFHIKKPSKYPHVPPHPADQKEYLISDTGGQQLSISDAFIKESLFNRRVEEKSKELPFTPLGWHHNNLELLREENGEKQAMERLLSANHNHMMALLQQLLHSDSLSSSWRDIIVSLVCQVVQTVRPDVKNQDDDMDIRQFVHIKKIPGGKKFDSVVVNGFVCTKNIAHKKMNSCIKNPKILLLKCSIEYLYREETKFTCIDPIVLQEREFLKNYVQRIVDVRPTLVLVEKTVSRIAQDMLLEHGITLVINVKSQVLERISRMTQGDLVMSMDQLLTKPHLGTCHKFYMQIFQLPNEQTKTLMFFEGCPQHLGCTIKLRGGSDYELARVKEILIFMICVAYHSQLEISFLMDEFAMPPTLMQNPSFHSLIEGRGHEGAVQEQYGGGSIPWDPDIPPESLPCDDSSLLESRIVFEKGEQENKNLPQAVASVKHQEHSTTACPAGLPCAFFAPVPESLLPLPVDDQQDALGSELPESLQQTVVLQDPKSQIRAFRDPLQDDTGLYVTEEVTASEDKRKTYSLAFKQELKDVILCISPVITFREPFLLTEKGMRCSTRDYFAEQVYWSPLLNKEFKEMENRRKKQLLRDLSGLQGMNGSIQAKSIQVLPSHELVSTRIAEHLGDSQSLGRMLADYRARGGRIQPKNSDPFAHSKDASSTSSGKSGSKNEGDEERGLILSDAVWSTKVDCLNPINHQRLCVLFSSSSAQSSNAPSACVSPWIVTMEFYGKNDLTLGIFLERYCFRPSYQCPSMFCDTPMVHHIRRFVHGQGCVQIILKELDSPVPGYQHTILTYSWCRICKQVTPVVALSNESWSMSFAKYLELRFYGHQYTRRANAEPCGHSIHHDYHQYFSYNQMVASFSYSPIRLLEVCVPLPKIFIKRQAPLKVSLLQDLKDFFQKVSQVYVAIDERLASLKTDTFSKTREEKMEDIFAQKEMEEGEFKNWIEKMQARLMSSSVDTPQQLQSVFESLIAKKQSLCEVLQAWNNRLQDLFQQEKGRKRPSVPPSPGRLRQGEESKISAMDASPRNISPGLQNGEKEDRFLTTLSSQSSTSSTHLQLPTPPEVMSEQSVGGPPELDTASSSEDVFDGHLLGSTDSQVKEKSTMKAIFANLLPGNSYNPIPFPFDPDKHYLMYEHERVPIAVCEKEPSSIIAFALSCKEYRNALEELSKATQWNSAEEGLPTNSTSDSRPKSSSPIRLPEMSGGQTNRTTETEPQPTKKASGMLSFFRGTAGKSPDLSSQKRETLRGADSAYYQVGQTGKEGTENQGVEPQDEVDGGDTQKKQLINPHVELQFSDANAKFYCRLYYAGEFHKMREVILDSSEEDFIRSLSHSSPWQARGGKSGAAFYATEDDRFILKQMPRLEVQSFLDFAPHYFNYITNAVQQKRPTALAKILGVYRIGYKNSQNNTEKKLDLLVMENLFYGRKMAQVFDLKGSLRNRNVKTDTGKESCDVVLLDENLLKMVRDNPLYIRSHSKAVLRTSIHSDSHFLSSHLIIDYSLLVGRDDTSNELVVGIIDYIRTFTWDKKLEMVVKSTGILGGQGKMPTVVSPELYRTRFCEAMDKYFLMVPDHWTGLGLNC

IC50: 4.41 µM
Structure (SMILES): CCn1c(C(C)O)nc2c(N3CCCCC3)nc(-c3cccc(-c4ccn(C)n4)c3)nc21 (stereo not shown) [Compound 339, 1-(9-ethyl-2-(3-(1-methyl-1H-pyrazol-3-yl)phenyl)-6-(piperidin-1-yl)-9H-purin-8-yl)ethan-1-ol]

— US20250353851A1, “PURINES AND METHODS OF THEIR USE” (Kineta, Inc., priority 2021, published 2025)
